# Assay results as given in PubChem BioAssay (NCI).
#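 Grown in 96-well plates, cells were treated for 48 hours with each compound at five concentrations. Insufficient inhibition: endpoint recorded as highest concentration tested. GI50 is the concentration that inhibits growth by half. TGI denotes the concentration required for complete inhibition of growth.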
# Tests used:
# Assay in all cases: NCI anticancer screen, dose series, 48 h
# [1] = tested on: SF-268 CNS
# [2] = tested on: NCI/ADR-RES ovarian
# [3] = tested on: SW-620 colon
# [4] = tested on: OVCAR-8 ovarian
# [5] = tested on: T-47D breast
# [6] = tested on: HS 578T breast
# [7] = tested on: 786-0 renal
# [8] = tested on: SF-539 CNS
# [9] = tested on: HCT-116 colon
# [10] = tested on: SK-MEL-5 melanoma
# [11] = tested on: OVCAR-5 ovarian
# [12] = tested on: EKVX NSCLC
# [13] = tested on: PC-3 prostate
# [14] = tested on: UACC-257 melanoma
# [15] = tested on: SK-MEL-2 melanoma
# [16] = tested on: MDA-MB-231 breast
# [17] = tested on: CAKI-1 renal
# [18] = tested on: MOLT-4 leukemia
# [19] = tested on: SNB-75 CNS
# [20] = tested on: HOP-92 NSCLC
# [21] = tested on: HL-60(TB) leukemia
# [22] = tested on: HCT-15 colon
# [23] = tested on: SK-MEL-28 melanoma
# [24] = tested on: OVCAR-3 ovarian
# [25] = tested on: HT29 colon
# [26] = tested on: MALME-3M melanoma
# [27] = tested on: A498 renal
# [28] = tested on: MCF7 breast
# [29] = tested on: UO-31 renal
# [30] = tested on: A549 NSCLC
# [31] = tested on: DU-145 prostate
# [32] = tested on: ACHN renal
# [33] = tested on: M14 melanoma
# [34] = tested on: IGROV1 ovarian
# [35] = tested on: U251 CNS
# [36] = tested on: RXF 393 renal
# [37] = tested on: K-562 leukemia
# [38] = tested on: TK-10 renal
# [39] = tested on: NCI-H460 lung
# [40] = tested on: SN12C renal
# [41] = tested on: NCI-H226 lung
# [42] = tested on: SK-OV-3 ovarian
# [43] = tested on: OVCAR-4 ovarian
# [44] = tested on: RPMI-8226 leukemia
# [45] = tested on: NCI-H522 lung
# [46] = tested on: HCC-2998 colon
# [47] = tested on: KM12 colon
# [48] = tested on: SF-295 CNS
# [49] = tested on: LOX IMVI melanoma
# [50] = tested on: UACC-62 melanoma
# [51] = tested on: HOP-62 NSCLC
# [52] = tested on: COLO 205 colon
# [53] = tested on: MDA-MB-435
# [54] = tested on: SNB-19 CNS
# [55] = tested on: CCRF-CEM leukemia
# [56] = tested on: BT-549 breast
# [57] = tested on: NCI-H23 lung
structure (smiles),measurement,setting,value
c1ccc(-c2[nH]ncc2-c2ccnc(-c3ccc(OCCN4CCOCC4)cc3)c2)nc1,GI50,[1],> 25 µM
same,TGI,[1],> 25 µM
same,GI50,[2],> 25 µM
same,TGI,[2],> 25 µM
same,GI50,[3],> 25 µM
same,TGI,[3],> 25 µM
same,GI50,[4],> 25 µM
same,TGI,[4],> 25 µM
same,GI50,[5],> 25 µM
same,TGI,[5],> 25 µM
same,GI50,[6],> 25 µM
same,TGI,[6],> 25 µM
same,GI50,[7],> 25 µM
same,TGI,[7],> 25 µM
same,GI50,[8],> 25 µM
same,TGI,[8],> 25 µM
same,GI50,[9],> 25 µM
same,TGI,[9],> 25 µM
same,GI50,[10],> 25 µM
same,TGI,[10],> 25 µM
same,GI50,[11],> 25 µM
same,TGI,[11],> 25 µM
same,GI50,[12],> 25 µM
same,TGI,[12],> 25 µM
same,GI50,[13],> 25 µM
same,TGI,[13],> 25 µM
same,GI50,[14],> 25 µM
same,TGI,[14],> 25 µM
same,GI50,[15],> 25 µM
same,TGI,[15],> 25 µM
same,GI50,[16],> 25 µM
same,TGI,[16],> 25 µM
same,GI50,[17],> 25 µM
same,TGI,[17],> 25 µM
same,GI50,[18],> 25 µM
same,TGI,[18],> 25 µM
same,GI50,[19],> 25 µM
same,TGI,[19],> 25 µM
same,GI50,[20],> 25 µM
same,TGI,[20],> 25 µM
same,GI50,[21],> 25 µM
same,TGI,[21],> 25 µM
same,GI50,[22],> 25 µM
same,TGI,[22],> 25 µM
same,GI50,[23],> 25 µM
same,TGI,[23],> 25 µM
same,GI50,[24],> 25 µM
same,TGI,[24],> 25 µM
same,GI50,[25],> 25 µM
same,TGI,[25],> 25 µM
same,GI50,[26],> 25 µM
same,TGI,[26],> 25 µM
same,GI50,[27],> 25 µM
same,TGI,[27],> 25 µM
same,GI50,[28],> 25 µM
same,TGI,[28],> 25 µM
same,GI50,[29],24.3 µM
same,TGI,[29],> 25 µM
same,GI50,[30],> 25 µM
same,TGI,[30],> 25 µM
same,GI50,[31],> 25 µM
same,TGI,[31],> 25 µM
same,GI50,[32],> 25 µM
same,TGI,[32],> 25 µM
same,GI50,[33],> 25 µM
same,TGI,[33],> 25 µM
same,GI50,[34],> 25 µM
same,TGI,[34],> 25 µM
same,GI50,[35],> 25 µM
same,TGI,[35],> 25 µM
same,GI50,[36],> 25 µM
same,TGI,[36],> 25 µM
same,GI50,[37],13.2 µM
same,TGI,[37],> 25 µM
same,GI50,[38],> 25 µM
same,TGI,[38],> 25 µM
same,GI50,[39],> 25 µM
same,TGI,[39],> 25 µM
same,GI50,[40],> 25 µM
same,TGI,[40],> 25 µM
same,GI50,[41],> 25 µM
same,TGI,[41],> 25 µM
same,GI50,[42],> 25 µM
same,TGI,[42],> 25 µM
same,GI50,[43],> 25 µM
same,TGI,[43],> 25 µM
same,GI50,[44],> 25 µM
same,TGI,[44],> 25 µM
same,GI50,[45],> 25 µM
same,TGI,[45],> 25 µM
same,GI50,[46],> 25 µM
same,TGI,[46],> 25 µM
same,GI50,[47],> 25 µM
same,TGI,[47],> 25 µM
same,GI50,[48],> 25 µM
same,TGI,[48],> 25 µM
same,GI50,[49],> 25 µM
same,TGI,[49],> 25 µM
same,GI50,[50],> 25 µM
same,TGI,[50],> 25 µM
same,GI50,[51],> 25 µM
same,TGI,[51],> 25 µM
same,GI50,[52],> 25 µM
same,TGI,[52],> 25 µM
same,GI50,[53],> 25 µM
same,TGI,[53],> 25 µM
same,GI50,[54],> 25 µM
same,TGI,[54],> 25 µM
same,GI50,[55],> 25 µM
same,TGI,[55],> 25 µM
same,GI50,[56],> 25 µM
same,TGI,[56],> 25 µM
same,GI50,[57],> 25 µM
same,TGI,[57],> 25 µM
